Read-outs that look alike come from different tables or passages of the source.
Test system: S. aureus
Assay: MIC against S. aureus strains and clinical isolates (broth microdilution)
Type: cell-based, Staphylococcus aureus
Settings: for MIC50: read-out: MIC50
Procedure, shortened: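 Broth microdilution per NCCLS in cation-supplemented Mueller-Hinton broth, final inoculum 5×10^5 CFU/ml from 0.5 McFarland suspensions diluted 1:10. Trays incubated aerobically overnight with quality control strains each run. Checkerboard FIC index: ≦0.5 synergy, >0.5 to 4 additive/indifferent, >4.0 antagonism.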

C/C(=C\C(=O)OCCCCCCCCC(=O)O)C[C@@H]1OC[C@H](C[C@@H]2O[C@H]2[C@@H](C)[C@H](C)O)[C@@H](O)[C@H]1O [Mupirocin, Pseudomonic acid A]
MIC (Staphylococcus aureus, NRS 3 / VISA, VISA, S. aureus NRS3 (HIP5827), read-out: MIC): 0.5 µg/mL
MIC (Staphylococcus aureus, NRS 4 / VISA, VISA, S. aureus NRS4 (HIP5836), read-out: MIC): 0.12 µg/mL
MIC (Staphylococcus aureus, NRS 18 / VISA, VISA, S. aureus NRS18 (HIP06854), read-out: MIC): 8 µg/mL
MIC (Staphylococcus aureus, NRS 24 / VISA, VISA, S. aureus NRS24 (HIP09143), read-out: MIC): 8 µg/mL
MIC (Staphylococcus aureus, NRS 49 / VISA, VISA, S. aureus NRS49 (Korea), read-out: MIC): 0.03 µg/mL
MIC (Staphylococcus aureus, NRS54, Table 6, high-level mupirocin-resistant S. aureus NRS54, read-out: MIC): > 256 µg/mL
MIC (Staphylococcus aureus, NRS 54 / VISA, VISA, S. aureus NRS54 (Brazil), read-out: MIC): > 8 µg/mL
MIC (Staphylococcus aureus, NRS 56 / VISA, VISA, S. aureus NRS56 (Brazil), read-out: MIC): 0.12 µg/mL
MIC (Staphylococcus aureus, NRS107, S. aureus NRS107 (HL Mup rest.), read-out: MIC): > 64 µg/mL
MIC (Staphylococcus aureus, NRS107, Table 2, S. aureus NRS107 (mupA), read-out: MIC): > 8 µg/mL
MIC (Staphylococcus aureus, NRS107, Table 3, S. aureus NRS107 (mupA), read-out: MIC): > 8 µg/mL
MIC (Staphylococcus aureus, NRS107, Table 4, S. aureus NRS107 (mupA), read-out: MIC): > 8 µg/mL
MIC (Staphylococcus aureus, NRS107, Table 6, high-level mupirocin-resistant S. aureus NRS107, read-out: MIC): > 256 µg/mL
MIC (Staphylococcus aureus, NRS127, Table 6, low-level mupirocin-resistant S. aureus NRS127, read-out: MIC): 32 µg/mL
MIC (Staphylococcus aureus, S. aureus 10-420 (LL Mup. Rest.), read-out: MIC): > 64 µg/mL
MIC (Staphylococcus aureus, S. aureus 14-354 (LL Mup. Rest.), read-out: MIC): 64 µg/mL
MIC (Staphylococcus aureus, S. aureus 25-670 (HL Mup. Rest.), read-out: MIC): > 64 µg/mL
MIC (Staphylococcus aureus, S. aureus 31-1334 (LL Mup Rest.), read-out: MIC): 32 µg/mL
MIC (Staphylococcus aureus, S. aureus 36-1298 (LL Mup. Rest.), read-out: MIC): 32 µg/mL
MIC (Staphylococcus aureus, S. aureus 87-2797 (HL Mup. Rest.), read-out: MIC): > 64 µg/mL
MIC (Staphylococcus aureus, S. aureus 87-2797 (Mup. Susc.), read-out: MIC): 0.25 µg/mL
MIC (Staphylococcus aureus, S. aureus 101-100 (Mup. Susc.), read-out: MIC): < 0.06 µg/mL
MIC (Staphylococcus aureus, S. aureus LZ1 (HL Mup rest.), read-out: MIC): > 64 µg/mL
MIC (Staphylococcus aureus, S. aureus LZ6 (HL Mup rest.), read-out: MIC): > 64 µg/mL
MIC (Staphylococcus aureus, S. aureus LZ8 (LL Mup. Rest.), read-out: MIC): 32 µg/mL
MIC (Staphylococcus aureus, S. aureus LZ9, read-out: MIC): 0.25 µg/mL
MIC (Staphylococcus aureus, S. aureus LZ10, read-out: MIC): 0.25 µg/mL
MIC (Staphylococcus aureus, S. aureus Miles Hall, read-out: MIC): 64 µg/mL
MIC (Staphylococcus aureus, S. aureus Oxford, read-out: MIC): 0.12 µg/mL
MIC (Staphylococcus aureus, Table 6, S. aureus (mupirocin-susceptible) 010-100, read-out: MIC): 0.06 µg/mL
MIC (Staphylococcus aureus, Table 6, S. aureus (mupirocin-susceptible) 087-2789, read-out: MIC): 0.12 µg/mL
MIC (Staphylococcus aureus, Table 6, S. aureus (mupirocin-susceptible) LZ9, read-out: MIC): 0.12 µg/mL
MIC (Staphylococcus aureus, Table 6, S. aureus (mupirocin-susceptible) LZ10, read-out: MIC): 0.12 µg/mL
MIC (Staphylococcus aureus, Table 6, high-level mupirocin-resistant S. aureus 010-420, read-out: MIC): > 256 µg/mL
MIC (Staphylococcus aureus, Table 6, high-level mupirocin-resistant S. aureus 25-670, read-out: MIC): > 256 µg/mL
MIC (Staphylococcus aureus, Table 6, high-level mupirocin-resistant S. aureus 87-2797, read-out: MIC): > 256 µg/mL
MIC (Staphylococcus aureus, Table 6, high-level mupirocin-resistant S. aureus 1079101, read-out: MIC): > 256 µg/mL
MIC (Staphylococcus aureus, Table 6, high-level mupirocin-resistant S. aureus LZ1, read-out: MIC): > 256 µg/mL
MIC (Staphylococcus aureus, Table 6, high-level mupirocin-resistant S. aureus LZ6, read-out: MIC): > 256 µg/mL
MIC (Staphylococcus aureus, Table 6, low-level mupirocin-resistant S. aureus 014-354, read-out: MIC): 16 µg/mL
MIC (Staphylococcus aureus, Table 6, low-level mupirocin-resistant S. aureus 031-1334, read-out: MIC): 16 µg/mL
MIC (Staphylococcus aureus, Table 6, low-level mupirocin-resistant S. aureus 036-1298, read-out: MIC): 16 µg/mL
MIC (Staphylococcus aureus, Table 6, low-level mupirocin-resistant S. aureus 1081148, read-out: MIC): 16 µg/mL
MIC (Staphylococcus aureus, Table 6, low-level mupirocin-resistant S. aureus LZ8, read-out: MIC): 16 µg/mL
MIC (Staphylococcus aureus, Table 6, low-level mupirocin-resistant S. aureus Miles Hall, read-out: MIC): 32 µg/mL
MIC (Staphylococcus aureus, VISA, three of the VISA isolates (poor activity), read-out: MICs): > 8 µg/mL
MIC50 (Staphylococcus aureus, all S. aureus isolates of Table 6): 32 µg/mL
MIC90 (Staphylococcus aureus, all S. aureus isolates of Table 6, read-out: MIC90): > 256 µg/mL
MIC90 (Staphylococcus aureus, all S. aureus strains of Table 1, read-out: MIC 90): > 64 µg/mL
MIC50 (Staphylococcus aureus, oxacillin-resistant S. aureus, Oxa-R (42)): 0.12 µg/mL
MIC90 (Staphylococcus aureus, oxacillin-resistant S. aureus, Oxa-R (42), read-out: MIC90): > 8 µg/mL
MIC (Staphylococcus aureus, oxacillin-resistant S. aureus, Oxa-R (42), read-out: MIC Mode): 0.12 µg/mL
MIC50 (Staphylococcus aureus, oxacillin-susceptible S. aureus, Oxa-S (20)): 0.12 µg/mL
MIC90 (Staphylococcus aureus, oxacillin-susceptible S. aureus, Oxa-S (20), read-out: MIC90): > 8 µg/mL
MIC (Staphylococcus aureus, oxacillin-susceptible S. aureus, Oxa-S (20), read-out: MIC Mode): 0.12 µg/mL
MIC50 (Staphylococcus aureus, recent clinical isolates of S. aureus, All (62)): 0.12 µg/mL
MIC90 (Staphylococcus aureus, recent clinical isolates of S. aureus, All (62), read-out: MIC90): > 8 µg/mL
MIC (Staphylococcus aureus, recent clinical isolates of S. aureus, All (62), read-out: MIC Mode): 0.12 µg/mL
MIC (Table 12, S. aureus 25-670, high level mupirocin-resistant, agent alone): >128 8 g/mL
